Test results: patent publication EP0465716A1, “Optically active thiazetoquino-line-3-carboxylic acid compound, method for preparation thereof, and a pharmaceutical composition comprising the same” (priority 1990, dated 1992)
Values after ≈ are worked out from the molar mass of the structure shown.

Key:
[1] = system: Enterobacter cloacae 963; assay: MIC, twofold agar dilution method (standard laboratory strain); type: cell-based; details: Enterobacter cloacae 963, Gram -; 10^6 cfu/ml; 18 hrs at 37 °C
Experimental: (§1) Overnight cultures in Mueller-Hinton broth were suspended by buffered saline gelatin. One loopful of the bacterial suspension (10⁶ or 10⁸ colony-forming units/ml) was incubated onto the plates containing test compounds. The plates were incubated for 18 hrs at 37 °C. The MIC was defined by the lowest concentration of the drug that inhibited visible growth of bacteria.

[2] = system: Escherichia coli NIHJ JC-2; assay: as above; type: cell-based; details: NIHJJC2; Escherichia coli NIHJ JC-2, Gram -; 10^6 cfu/ml; 18 hrs at 37 °C
Experimental: as §1

[3] = system: Pseudomonas aeruginosa IFO 3445; assay: as above; type: cell-based; details: IFO3445; Pseudomonas aeruginosa IFO 3445, Gram -; 10^6 cfu/ml; 18 hrs at 37 °C
Experimental: as §1

[4] = system: Serratia marcescens IAM 1184; assay: as above; type: cell-based; details: IAM1184; Serratia marcescens IAM 1184, Gram -; 10^6 cfu/ml; 18 hrs at 37 °C
Experimental: as §1

[5] = system: Staphylococuss aureus FDA 209PJC-1; assay: as above; type: cell-based; details: Staphylococuss aureus FDA 209PJC-1, Gram +; 10^6 cfu/ml; 18 hrs at 37 °C
Experimental: as §1

[6] = system: Klebsiella pneumoniae PCI-602; assay: as above; type: cell-based; details: PCI602; Klebsiella pneumoniae PCI-602, Gram -; 10^6 cfu/ml; 18 hrs at 37 °C; read-out: MIC
Experimental: as §1, with “Minimum inhibitory concentrations (MIC) of test compounds were determined by the twofold agar dilution method (Chemotherapy, 29(1), 76(1981)). Overnight” for “Overnight”

[7] = system: Acinetobacter calcoaceticus HNR 904; assay: MIC, twofold agar dilution method (clinically isolated strain); type: cell-based; details: HNR904; Acinetobacter calcoaceticus HNR 904, Gram -; 10^6 cfu/ml; 18 hrs at 37 °C
Experimental: as §1

[8] = system: Acinetobacter calcoaceticus HNR 916; assay: as above; type: cell-based; details: HNR916; Acinetobacter calcoaceticus HNR 916, Gram -; 10^6 cfu/ml; 18 hrs at 37 °C
Experimental: as §1

[9] = system: Acinetobacter calcoaceticus HNR 939; assay: as above; type: cell-based; details: HNR939; Acinetobacter calcoaceticus HNR 939, Gram -; 10^6 cfu/ml; 18 hrs at 37 °C
Experimental: as §1

[10] = system: Enterobacter cloacae HNR 1939; assay: as above; type: cell-based; details: HNR1939; Enterobacter cloacae HNR 1939, Gram -; 10^6 cfu/ml; 18 hrs at 37 °C
Experimental: as §1

[11] = system: Enterobacter cloacae HNR 1941; assay: as above; type: cell-based; details: HNR1941; Enterobacter cloacae HNR 1941, Gram -; 10^6 cfu/ml; 18 hrs at 37 °C
Experimental: as §1

[12] = system: Enterobacter cloacae HNR 1946; assay: as above; type: cell-based; details: HNR1946; Enterobacter cloacae HNR 1946, Gram -; 10^6 cfu/ml; 18 hrs at 37 °C
Experimental: as §1

[13] = system: Enterococcus faecalis HPC 948; assay: as above; type: cell-based; details: HPC948; Enterococcus faecalis HPC 948, Gram +; 10^6 cfu/ml; 18 hrs at 37 °C
Experimental: as §1

[14] = system: Enterococcus faecalis HPC 975; assay: as above; type: cell-based; details: HPC975; Enterococcus faecalis HPC 975, Gram +; 10^6 cfu/ml; 18 hrs at 37 °C
Experimental: as §1

[15] = system: Enterococcus faecalis HPC 984; assay: as above; type: cell-based; details: HPC984; Enterococcus faecalis HPC 984, Gram +; 10^6 cfu/ml; 18 hrs at 37 °C
Experimental: as §1

[16] = system: Klebsiella pneumoniae HNR 828; assay: as above; type: cell-based; details: HNR828; Klebsiella pneumoniae HNR 828, Gram -; 10^6 cfu/ml; 18 hrs at 37 °C
Experimental: as §1

[17] = system: Klebsiella pneumoniae HNR 858; assay: as above; type: cell-based; details: HNR858; Klebsiella pneumoniae HNR 858, Gram -; 10^6 cfu/ml; 18 hrs at 37 °C
Experimental: as §1

[18] = system: Klebsiella pneumoniae HNR 869; assay: as above; type: cell-based; details: HNR869; Klebsiella pneumoniae HNR 869, Gram -; 10^6 cfu/ml; 18 hrs at 37 °C
Experimental: as §1

[19] = system: Pseudomonas aeruginosa HNR 1472; assay: as above; type: cell-based; details: HNR1472; Pseudomonas aeruginosa HNR 1472, Gram -; 10^6 cfu/ml; 18 hrs at 37 °C
Experimental: as §1

[20] = system: Pseudomonas aeruginosa HNR 1489; assay: as above; type: cell-based; details: HNR1489; Pseudomonas aeruginosa HNR 1489, Gram -; 10^6 cfu/ml; 18 hrs at 37 °C
Experimental: as §1

[21] = system: Pseudomonas aeruginosa HNR 1537; assay: as above; type: cell-based; details: HNR1537; Pseudomonas aeruginosa HNR 1537, Gram -; 10^6 cfu/ml; 18 hrs at 37 °C
Experimental: as §1

[22] = system: Serratia marcescens HNR 1544; assay: as above; type: cell-based; details: HNR1544; Serratia marcescens HNR 1544, Gram -; 10^6 cfu/ml; 18 hrs at 37 °C
Experimental: as §1

[23] = system: Serratia marcescens HNR 1767; assay: as above; type: cell-based; details: HNR1767; Serratia marcescens HNR 1767, Gram -; 10^6 cfu/ml; 18 hrs at 37 °C
Experimental: as §1

[24] = system: Serratia marcescens HNR 1792; assay: as above; type: cell-based; details: HNR1792; Serratia marcescens HNR 1792, Gram -; 10^6 cfu/ml; 18 hrs at 37 °C
Experimental: as §1

[25] = system: Staphylococcuss aureus HPC 292; assay: as above; type: cell-based; details: Staphylococcuss aureus HPC 292, Gram +; 10^6 cfu/ml; 18 hrs at 37 °C
Experimental: as §1

[26] = system: Staphylococcuss aureus HPC 308; assay: as above; type: cell-based; details: Staphylococcuss aureus HPC 308, Gram +; 10^6 cfu/ml; 18 hrs at 37 °C
Experimental: as §1

[27] = system: Staphylococcuss aureus HPC 527; assay: as above; type: cell-based; details: Staphylococcuss aureus HPC 527, Gram +; 10^6 cfu/ml; 18 hrs at 37 °C
Experimental: as §1

[28] = system: Male mice of ddY strain; assay: Convulsion inducing activity in combination with fenbufen; details: thirty minutes after fenbufen 100 mg/kg orally
Experimental: Male mice of ddY strain, 5 weeks old, were used. Fenbufen suspended in 0.5 % carboxymethylcellulose was administered orally at a dose of 100 mg/kg. After thirty minutes, test compounds suspended in 0.5 % carboxymethylcellulose were injected intraperitoneally (i.p.) at a dose of 100 mg/kg or 300 mg/kg.

| MIC [1] [µg/mL] | MIC [2] [µg/mL] | MIC [3] [µg/mL] | MIC [4] [µg/mL] | MIC [5] [µg/mL] | MIC [6] [µg/mL] | MIC [7] [µg/mL] | MIC [8] [µg/mL] | MIC [9] [µg/mL] | MIC [10] [µg/mL] | MIC [11] [µg/mL] | MIC [12] [µg/mL] | MIC [13] [µg/mL] | MIC [14] [µg/mL] | MIC [15] [µg/mL] | MIC [16] [µg/mL] | MIC [17] [µg/mL] | MIC [18] [µg/mL] | MIC [19] [µg/mL] | MIC [20] [µg/mL] | SMILES | also measured |
| --- | --- | --- | --- | --- | --- | --- | --- | --- | --- | --- | --- | --- | --- | --- | --- | --- | --- | --- | --- | --- | --- |
| 0.006 (≈ 0.0163 µM) | 0.006 (≈ 0.0163 µM) | 0.025 (≈ 0.068 µM) | 0.012 (≈ 0.0327 µM) | 0.006 (≈ 0.0163 µM) | ≤ 0.0015 | 3.13 (≈ 8.52 µM) | 0.025 (≈ 0.068 µM) | 0.78 (≈ 2.12 µM) | 0.05 (≈ 0.136 µM) | 1.56 (≈ 4.25 µM) | 0.1 (≈ 0.272 µM) | 0.39 (≈ 1.06 µM) | 1.56 (≈ 4.25 µM) | 0.05 (≈ 0.136 µM) | 0.78 (≈ 2.12 µM) | 0.05 (≈ 0.136 µM) | 0.39 (≈ 1.06 µM) | 1.56 (≈ 4.25 µM) | 0.05 (≈ 0.136 µM) | CC1Sc2c(C(=O)O)c(=O)c3cc(F)c(N4CC[C@H](N)C4)c(F)c3n21 (single isomer, unassigned) [Example 18] | MIC [21]: 3.13 µg/mL (≈ 8.52 µM); MIC [22]: 0.012 µg/mL (≈ 0.0327 µM); MIC [23]: 3.13 µg/mL (≈ 8.52 µM); MIC [24]: 0.78 µg/mL (≈ 2.12 µM); MIC [25]: 0.78 µg/mL (≈ 2.12 µM); MIC [26]: 0.39 µg/mL (≈ 1.06 µM); MIC [27]: 0.012 µg/mL (≈ 0.0327 µM); Number of convulsion induced / Number of animals ([28]; 100 mg/kg (i.p.)): 0 / 6; Number of convulsion induced / Number of animals ([28]; 300 mg/kg (i.p.)): 0 / 6 |
| 0.012 (≈ 0.0313 µM) | 0.012 (≈ 0.0313 µM) | 0.05 (≈ 0.13 µM) | 0.025 (≈ 0.0651 µM) | 0.025 (≈ 0.0651 µM) | 0.006 (≈ 0.0156 µM) | 6.25 (≈ 16.3 µM) | 0.05 (≈ 0.13 µM) | 0.78 (≈ 2.03 µM) | 0.1 (≈ 0.261 µM) | 0.78 (≈ 2.03 µM) | 0.1 (≈ 0.261 µM) | 0.39 (≈ 1.02 µM) | 1.56 (≈ 4.06 µM) | 0.1 (≈ 0.261 µM) | 0.78 (≈ 2.03 µM) | 0.1 (≈ 0.261 µM) | 0.2 (≈ 0.521 µM) | 1.56 (≈ 4.06 µM) | 0.1 (≈ 0.261 µM) | CC1Sc2c(C(=O)O)c(=O)c3cc(F)c(N4CC[C@H](N)C4)c(Cl)c3n21 (single isomer, unassigned) [Example 15] | MIC [21]: 1.56 µg/mL (≈ 4.06 µM); MIC [22]: 0.025 µg/mL (≈ 0.0651 µM); MIC [23]: 1.56 µg/mL (≈ 4.06 µM); MIC [24]: 0.39 µg/mL (≈ 1.02 µM); MIC [25]: 1.56 µg/mL (≈ 4.06 µM); MIC [26]: 0.39 µg/mL (≈ 1.02 µM); MIC [27]: 0.025 µg/mL (≈ 0.0651 µM); Number of convulsion induced / Number of animals ([28]; 100 mg/kg (i.p.)): 0 / 6; Number of convulsion induced / Number of animals ([28]; 300 mg/kg (i.p.)): 0 / 6 |
